Tested on: 349418-098-R-PDC complex spheroid viability
Experiment: Anticancer human tumor 349418-098-R-PDC patient-derived lung adenocarcinoma cell line growth inhibition [RAS]
Conditions: for IC50: curve of first compound; for viability, T/C: stronger effect = lower value
From the text: RAS pathway inhibitors in Combinations in Complex Spheroids
A high-throughput screen of multi-cell type tumor spheroids was designed to identify active combinations of RAS pathway inhibitors and targeted small molecules. Complex spheroids include a stromal component modeled by human endothelial cells (HUVEC) and fibroblasts modeled by human mesenchymal stem cells (MSCs). The concentration ranges selected for each drug and investigational agent were based upon clinically achievable concentrations if the clinical Cmax of the agent was known.
Compounds. The drugs and investigational agents: abemaciclib (NSC768073), cobimetinib (NSC768068), divarasib (GDC6063, NSC841802), docetaxel (NSC628503), GDC-1971 (RLY-1971, NSC841576), gemcitabine (NSC613327), inavolisib (NSC800729), ipatasertib (NSC767898), KB-0742 (NSC834161), MRTX-1133 (NSC836407), osimertinib (NSC779217), RMC-4630 (NSC839698), RMC-6236 (NSC851965), RMC-6291 (NSC852671), Ro-3306 (NSC812927), sapanisertib (NSC764658), SN-38 (NSC673596), staurosporine (NSC755774), SY5609 (NSC837396), and tovorafenib (DAY101, NSC766906), were obtained from the National Cancer Institute (NCI) Developmental Therapeutics Program Chemical Repository. The FDA-approved anticancer drug set is available from the NCI Developmental Therapeutics Program. […] The stock solutions were prepared in dimethyl sulfoxide (DMSO, Sigma-Aldrich, St. Louis, MO, cat. D2650) at 800-fold the tested concentration and stored at -70 degrees C prior to their use. All drugs and investigational agents were tested over a range starting from a high concentration at or near the clinical Cmax and decreasing in half-log increments. If the clinical Cmax for an agent had not been determined, the highest concentration tested was 10 microM.
Cell Culture. All cells were maintained in an incubator at 37 degrees C and 5% CO2 with 95% humidity. The PDC lines were cultured according to standard operating procedures established by the NCI PDMR. All PDCs were thawed and cultured in Matrigel-coated flasks prepared with a working solution of 1X Ham's F-12 nutrient mix, without supplementation (Invitrogen, Waltham, MA, cat. 11765054), 100 U/mL penicillin-streptomycin (Invitrogen, cat. 15140122), and 2.5% Matrigel (Corning Inc., Corning, NY, cat. 354248) for the first three passages. The 362531-283-R-J2-PDC and 782815-120-R-J1-PDC lines were cultured in 6C/Colon 1B media, which includes advanced DMEM/F-12 (Thermo Fisher Scientific, cat. 12634028), 10 mM HEPES (Thermo Fisher Scientific, cat. 15630080), 1X GlutaMAX supplement (Thermo Fisher Scientific, cat. 35050061), 0.1 mg/mL primocin (InvivoGen, San Diego, CA, cat. ant-pm-2), 10% defined fetal bovine serum, heat inactivated (HyClone Laboratories Inc., Logan, UT, cat. SH30070.03HI), 50% L-WRN conditioned media (ATCC, cat. CRL-3276), 1.25 mM N-Acetyl-L-cysteine (Sigma-Aldrich, cat. A9165), 10 mM nicotinamide (Sigma-Aldrich, cat. N0636), 1X B-27 supplement (Thermo Fisher Scientific, cat. 17504044), 1X N-2 supplement (Thermo Fisher Scientific, cat. 17502048), 50 ng/mL human EGF (Thermo Fisher Scientific, cat. PHG0311), and 10 microM Y-27632 dihydrochloride (Tocris Bioscience, cat. 1254). The K12877-001-R-J1-PDC line was cultured in 6I media, which includes all 6C/Colon 1B media plus 10 ng/mL human FGF-10 (PeproTech, cat. 100-26), 1 ng/mL human FGF-2 (PeproTech, cat. 100-18B), 1 µM prostaglandin E2 (Tocris Bioscience, cat. 2296), […] hydrocortisone (Sigma-Aldrich, cat. H4001), and […] bovine insulin (Sigma-Aldrich, cat. I6634). The K86415-001-R-J1-PDC line was cultured in 6D media, which includes all 6C/Colon 1B media components minus the L-WRN conditioned media. The 485176-168-R4-J1-PDC was cultured in PANC media, which includes all 6C/Colon 1B media plus 100 ng/mL human FGF-10 (PeproTech, cat. 100-26), 500 nM SB-431542 (Selleckchem, cat. S1067), and 10 nM gastrin (Tocris Bioscience, cat. 3006). […]
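Note: spheroids exposed to compound for seven days before viability readout.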

Nc1ccn(C2OC(CO)C(O)C2(F)F)c(=O)n1 (centres undefined) + C#Cc1c(F)ccc2cc(O)cc(-c3ncc4c(N5CC6CCC(C5)N6)nc(OCC56CCCN5CC(F)C6)nc4c3F)c12
IC50 (second compound 0.0316 µM): < 0.00316 µM
IC50 (second compound 0.1 µM): < 0.00316 µM
IC50 (second compound 0.316 µM): < 0.00316 µM
IC50 (second compound 1 µM): < 0.00316 µM
IC50 (second compound 3.16 µM): < 0.00316 µM
IC50 (second compound 10 µM): < 0.00316 µM
viability, T/C (second compound 0.0316 µM, first compound 0.00316 µM): 22.7%
viability, T/C (second compound 0.0316 µM, first compound 0.01 µM): 7.34%
viability, T/C (second compound 0.0316 µM, first compound 0.0316 µM): 6.68%
viability, T/C (second compound 0.0316 µM, first compound 0.1 µM): 6.34%
viability, T/C (second compound 0.0316 µM, first compound 0.316 µM): 4.77%
viability, T/C (second compound 0.0316 µM, first compound 1 µM): 5.69%
viability, T/C (second compound 0.1 µM, first compound 0.00316 µM): 22.5%
viability, T/C (second compound 0.1 µM, first compound 0.01 µM): 6.75%
viability, T/C (second compound 0.1 µM, first compound 0.0316 µM): 6.72%
viability, T/C (second compound 0.1 µM, first compound 0.1 µM): 5.71%
viability, T/C (second compound 0.1 µM, first compound 0.316 µM): 5.49%
viability, T/C (second compound 0.1 µM, first compound 1 µM): 4.87%
viability, T/C (second compound 0.316 µM, first compound 0.00316 µM): 22.3%
viability, T/C (second compound 0.316 µM, first compound 0.01 µM): 7.7%
viability, T/C (second compound 0.316 µM, first compound 0.0316 µM): 6.8%
viability, T/C (second compound 0.316 µM, first compound 0.1 µM): 6.21%
viability, T/C (second compound 0.316 µM, first compound 0.316 µM): 6.34%
viability, T/C (second compound 0.316 µM, first compound 1 µM): 5.58%
viability, T/C (second compound 1 µM, first compound 0.00316 µM): 21.2%
viability, T/C (second compound 1 µM, first compound 0.01 µM): 7.84%
viability, T/C (second compound 1 µM, first compound 0.0316 µM): 5.78%
viability, T/C (second compound 1 µM, first compound 0.1 µM): 6.95%
viability, T/C (second compound 1 µM, first compound 0.316 µM): 6.05%
viability, T/C (second compound 1 µM, first compound 1 µM): 5.2%
viability, T/C (second compound 3.16 µM, first compound 0.00316 µM): 18.1%
viability, T/C (second compound 3.16 µM, first compound 0.01 µM): 9.18%
viability, T/C (second compound 3.16 µM, first compound 0.0316 µM): 6.71%
viability, T/C (second compound 3.16 µM, first compound 0.1 µM): 7.51%
viability, T/C (second compound 3.16 µM, first compound 0.316 µM): 7.89%
viability, T/C (second compound 3.16 µM, first compound 1 µM): 6.18%
viability, T/C (second compound 10 µM, first compound 0.00316 µM): 16%
viability, T/C (second compound 10 µM, first compound 0.01 µM): 3.49%
viability, T/C (second compound 10 µM, first compound 0.0316 µM): 5.23%
viability, T/C (second compound 10 µM, first compound 0.1 µM): 3.11%
viability, T/C (second compound 10 µM, first compound 0.316 µM): 5.48%
viability, T/C (second compound 10 µM, first compound 1 µM): 4.28%

NC1c2ccccc2OC12CCN(c1cnc3c(N4CCCc5ncccc54)n[nH]c3n1)CC2 (centres undefined) + CCn1c(-c2cc(N3CCN(C)CC3)cnc2C(C)OC)c2c3cc(ccc31)-c1csc(n1)CC(NC(=O)C1CC1C)C(=O)N1CCCC(N1)C(=O)OCC(C)(C)C2
IC50 (second compound 0.000949 µM): > 10 µM
IC50 (second compound 0.003 µM): > 10 µM
IC50 (second compound 0.00949 µM): > 10 µM
IC50 (second compound 0.03 µM): > 10 µM
IC50 (second compound 0.0949 µM): > 10 µM
IC50 (second compound 0.3 µM): > 10 µM
viability, T/C (second compound 0.000949 µM, first compound 0.0316 µM): 91.7%
viability, T/C (second compound 0.000949 µM, first compound 0.1 µM): 98.8%
viability, T/C (second compound 0.000949 µM, first compound 0.316 µM): 111%
viability, T/C (second compound 0.000949 µM, first compound 1 µM): 90.2%
viability, T/C (second compound 0.000949 µM, first compound 3.16 µM): 86.5%
viability, T/C (second compound 0.000949 µM, first compound 10 µM): 76.8%
viability, T/C (second compound 0.003 µM, first compound 0.0316 µM): 98.1%
viability, T/C (second compound 0.003 µM, first compound 0.1 µM): 120%
viability, T/C (second compound 0.003 µM, first compound 0.316 µM): 105%
viability, T/C (second compound 0.003 µM, first compound 1 µM): 102%
viability, T/C (second compound 0.003 µM, first compound 3.16 µM): 95.6%
viability, T/C (second compound 0.003 µM, first compound 10 µM): 76.8%
viability, T/C (second compound 0.00949 µM, first compound 0.0316 µM): 116%
viability, T/C (second compound 0.00949 µM, first compound 0.1 µM): 102%
viability, T/C (second compound 0.00949 µM, first compound 0.316 µM): 97.1%
viability, T/C (second compound 0.00949 µM, first compound 1 µM): 98%
viability, T/C (second compound 0.00949 µM, first compound 3.16 µM): 90.7%
viability, T/C (second compound 0.00949 µM, first compound 10 µM): 73.9%
viability, T/C (second compound 0.03 µM, first compound 0.0316 µM): 113%
viability, T/C (second compound 0.03 µM, first compound 0.1 µM): 102%
viability, T/C (second compound 0.03 µM, first compound 0.316 µM): 111%
viability, T/C (second compound 0.03 µM, first compound 1 µM): 107%
viability, T/C (second compound 0.03 µM, first compound 3.16 µM): 102%
viability, T/C (second compound 0.03 µM, first compound 10 µM): 72.3%
viability, T/C (second compound 0.0949 µM, first compound 0.0316 µM): 114%
viability, T/C (second compound 0.0949 µM, first compound 0.1 µM): 88%
viability, T/C (second compound 0.0949 µM, first compound 0.316 µM): 110%
viability, T/C (second compound 0.0949 µM, first compound 1 µM): 107%
viability, T/C (second compound 0.0949 µM, first compound 3.16 µM): 116%
viability, T/C (second compound 0.0949 µM, first compound 10 µM): 78.5%
viability, T/C (second compound 0.3 µM, first compound 0.0316 µM): 103%
viability, T/C (second compound 0.3 µM, first compound 0.1 µM): 105%
viability, T/C (second compound 0.3 µM, first compound 0.316 µM): 113%
viability, T/C (second compound 0.3 µM, first compound 1 µM): 93.9%
viability, T/C (second compound 0.3 µM, first compound 3.16 µM): 104%
viability, T/C (second compound 0.3 µM, first compound 10 µM): 64.8%
